Laboratory results from ChEMBL document CHEMBL4732153, “Phenyl 4-(2-oxopyrrolidin-1-yl)benzenesulfonates and phenyl 4-(2-oxopyrrolidin-1-yl)benzenesulfonamides as new antimicrotubule agents targeting the colchicine-binding site” (Eur J Med Chem, 2021).
Active and inactive are the calls of the source. The rule behind the calls is not given here.

Columns and labels:
MCF7 = experiment: Antiproliferative activity against human MCF7 cells assessed as reduction in cell viability measured after 48 hrs by sulforhodamine B assay; type: functional, cell-based; conditions: MCF7, 48 h
HT-29 = experiment: Antiproliferative activity against human HT-29 cells assessed as reduction in cell viability measured after 48 hrs by sulforhodamine B assay; type: functional, cell-based; conditions: HT-29, 48 h
M21 [1] = experiment: Antiproliferative activity against human M21 cells assessed as reduction in cell viability measured after 48 hrs by sulforhodamine B assay; type: functional, cell-based; conditions: M21, 48 h
HT-1080 = experiment: Antiproliferative activity against human HT-1080 cells assessed as reduction in cell viability measured after 48 hrs by sulforhodamine B assay; type: functional, cell-based; conditions: HT-1080, 48 h
M21 [2] = experiment: Cell cycle arrest in human M21 cells assessed as accumulation at S phase at 2 to 5 times IC50 measured after 24 hrs by DAPI staining based flow cytometry (reference value: 16.1%); type: functional
Tubulin (Homo sapiens) [3] = molecular target: T1, Tubulin (Homo sapiens) (UniProt P68371+Q9H4B7+P0DPH7+P68366+Q13509+Q71U36+P04350+Q3ZCM7+P07437+P68363+Q9BQE3+Q6PEY2+Q13885+Q9BVA1+Q9BUF5); experiment: Disruption of microtubule polymerization in human M21 cells assessed as induction of mitotic abnormalities at 5 times IC50 measured after 24 hrs by DAPI staining based immunofluorescence microscopic analysis; type: cell-based
Sus scrofa [4] = species on record: Sus scrofa; experiment: Inhibition of porcine brain tubulin polymerization at 15 uM measured after 60 mins by fluorescence assay
M21 [5] = experiment: Cell cycle arrest in human M21 cells assessed as accumulation at SubG1 phase at 2 to 5 times IC50 measured after 24 hrs by DAPI staining based flow cytometry (reference value: 5%); type: functional
M21 [6] = experiment: Cell cycle arrest in human M21 cells assessed as accumulation at G0/G1 phase at 2 to 5 times IC50 measured after 24 hrs by DAPI staining based flow cytometry (reference value: 65.5%); type: functional
M21 [7] = experiment: Cell cycle arrest in human M21 cells assessed as accumulation at G2/M phase at 2 to 5 times IC50 measured after 24 hrs by DAPI staining based flow cytometry (reference value: 13.4%); type: functional
[8] = Solubility of compound in DMSO at 15 uM; type: physicochemical
Tubulin (Homo sapiens) [9] = molecular target: T1, Tubulin (Homo sapiens); experiment: Disruption of microtubule polymerization in human M21 cells at 5 times IC50 measured after 24 hrs by DAPI staining based immunofluorescence microscopic analysis; type: cell-based
[10] = Toxicity in chick embryo assessed as death at 1 ug, iv incubated for 7 days relative to control; type: organism-based; conditions: in vivo, at 1 µg, time 7 day, read-out: Activity
[11] = molecular target: Tubulin beta (Homo sapiens) (UniProt P68371+Q9H4B7+Q13509+P04350+Q3ZCM7+P07437+Q13885+Q9BVA1+Q9BUF5+A6NNZ2); experiment: Inhibition of EBI binding to colchicine-binding site of beta-tubulin in human M21 cells at 100 to 1000 times IC50 preincubated for 2 hrs followed by EBI addition and measured after 1.5 hrs by Western blot analysis; type: cell-based; conditions: time 3.5 hrs
[12] = Solubility of compound in DMSO at 3 uM; type: physicochemical
Sus scrofa [13] = species on record: Sus scrofa; experiment: Inhibition of porcine brain tubulin polymerization at 3 uM measured after 60 mins by fluorescence assay
[14] = Toxicity in chick embryo assessed as death at 10 ug, iv incubated for 7 days relative to control; type: organism-based; conditions: in vivo, at 10 µg, time 7 day, read-out: Activity
[15] = Toxicity in chick embryo assessed as death at 20 ug, iv incubated for 7 days relative to control; type: organism-based; conditions: in vivo, at 20 µg, time 7 day, read-out: Activity
Sus scrofa [16] = species on record: Sus scrofa; experiment: Inhibition of porcine brain tubulin polymerization at 30 uM measured after 60 mins by fluorescence assay
[17] = Solubility of compound in DMSO at 30 uM; type: physicochemical
M21 [18] = experiment: Cell cycle arrest in human M21 cells assessed as accumulation at SubG1 phase at 11 nM measured after 24 hrs by DAPI staining based flow cytometry (reference value: 5%); type: functional
M21 [19] = experiment: Cell cycle arrest in human M21 cells assessed as accumulation at G2/M phase at 11 nM measured after 24 hrs by DAPI staining based flow cytometry (reference value: 13.4%); type: functional
M21 [20] = experiment: Cell cycle arrest in human M21 cells assessed as accumulation at G0/G1 phase at 11 nM measured after 24 hrs by DAPI staining based flow cytometry (reference value: 65.5%); type: functional
M21 [21] = experiment: Cell cycle arrest in human M21 cells assessed as accumulation at S phase at 11 nM measured after 24 hrs by DAPI staining based flow cytometry (reference value: 16.1%); type: functional

| Structure (SMILES) | IC50 (MCF7) [nM] | IC50 (HT-29) [nM] | IC50 (HT-1080) [nM] | IC50 (M21 [1]) [nM] | Activity (M21 [2]) [%] | Activity (M21 [5]) [%] | Activity (M21 [6]) [%] | Activity (M21 [7]) [%] | also measured |
| --- | --- | --- | --- | --- | --- | --- | --- | --- | --- |
| COc1ccc(NS(=O)(=O)c2ccc(N3CCCC3=O)cc2)cc1OC | 2600 | 890 | 2250 | 5100 | – | – | – | – | – |
| COc1ccc(OS(=O)(=O)c2ccc(N3CCCC3=O)cc2)cc1OC | 290 | 690 | 590 | 650 | – | – | – | – | – |
| COc1cc(NS(=O)(=O)c2ccc(N3CCCC3=O)cc2)cc(OC)c1OC | 88 | 80 | 130 | 56 | 7.5 | 3.9 | 8.2 | 80.4 | Activity (Tubulin (Homo sapiens) [3]): Active; inhibition (Sus scrofa [4]): Active; solubility [8]: Soluble; Activity (Tubulin (Homo sapiens) [9]): Active; mortality at 168 h [10]: 8%; Inhibition of EBI binding (active/inactive) [11]: Active |
| O=C1CCCN1c1ccc(S(=O)(=O)Nc2cccc(I)c2)cc1 | 600 | 390 | 860 | 330 | 7.8 | 6.8 | 11.2 | 74.2 | Activity (Tubulin (Homo sapiens) [3]): Active; Activity (Tubulin (Homo sapiens) [9]): Active; Inhibition of EBI binding (active/inactive) [11]: Active |
| O=C1CCCN1c1ccc(S(=O)(=O)Nc2ccccc2)cc1 | 2800 | 3400 | 4900 | 5600 | – | – | – | – | – |
| O=C1CCCN1c1ccc(S(=O)(=O)Oc2ccccc2-c2ccccc2)cc1 | 210 | 350 | 370 | 190 | – | – | – | – | – |
| COc1cc(NS(=O)(=O)c2ccc(N3CCCC3=O)cc2)cc(OC)c1 | 690 | 1300 | 990 | 390 | 9.8 | 4.9 | 43.1 | 42.2 | – |
| O=C1CCCN1c1ccc(S(=O)(=O)Oc2ccccc2)cc1 | 650 | 480 | 920 | 460 | – | – | – | – | – |
| COc1ccccc1NS(=O)(=O)c1ccc(N2CCCC2=O)cc1 | 1800 | 2400 | 3200 | 3000 | – | – | – | – | – |
| O=C1CCCN1c1ccc(S(=O)(=O)Oc2cc(Br)cc(Br)c2)cc1 | 11 | 10 | 11 | 8.7 | 7 | 3.9 | 9.4 | 79.7 | Activity (Tubulin (Homo sapiens) [3]): Active; solubility [12]: Soluble; Activity (Tubulin (Homo sapiens) [9]): Active; inhibition (Sus scrofa [13]): Active; mortality at 168 h [14]: 18%; Inhibition of EBI binding (active/inactive) [11]: Active |
| COc1cc(OC)cc(OS(=O)(=O)c2ccc(N3CCCC3=O)cc2)c1 | 21 | 39 | 26 | 12 | 9.6 | 12.1 | 32.7 | 45.6 | mortality at 168 h [15]: 18%; Activity (Tubulin (Homo sapiens) [3]): Active; inhibition (Sus scrofa [16]): Active; Activity (Tubulin (Homo sapiens) [9]): Active; solubility [17]: Soluble; Inhibition of EBI binding (active/inactive) [11]: Active |
| O=C1CCCN1c1ccc(S(=O)(=O)Oc2ccc(-c3ccccc3)cc2)cc1 | 1700 | 2900 | 2600 | 2300 | – | – | – | – | – |
| COc1ccccc1OS(=O)(=O)c1ccc(N2CCCC2=O)cc1 | 890 | 1200 | 1300 | 1300 | – | – | – | – | – |
| O=C1CCCN1c1ccc(S(=O)(=O)Nc2cccc(F)c2)cc1 | 680 | 5400 | 840 | 2300 | – | – | – | – | – |
| COc1ccc(NS(=O)(=O)c2ccc(N3CCCC3=O)cc2)cc1 | 4600 | 4800 | 8500 | 7500 | – | – | – | – | – |
| O=C1CCCN1c1ccc(S(=O)(=O)Nc2cc(Br)cc(Br)c2)cc1 | 520 | 390 | 590 | 280 | 6.3 | 4.2 | 8.3 | 81.2 | Activity (Tubulin (Homo sapiens) [3]): Active; solubility [12]: Soluble; Activity (Tubulin (Homo sapiens) [9]): Active; inhibition (Sus scrofa [13]): Active; mortality at 168 h [14]: 25%; Inhibition of EBI binding (active/inactive) [11]: Active |
| COc1ccc(/C=C\c2cc(OC)c(OC)c(OC)c2)cc1O [COMBRETASTATIN A4] | 1.9 | 5.1 | 2.2 | 2.2 | – | – | – | – | inhibition (Sus scrofa [4]): Active; Activity (M21 [18]): 4.1%; Activity (M21 [19]): 79.5%; Activity (M21 [20]): 9.2%; Activity (M21 [21]): 7.2%; Inhibition of EBI binding (active/inactive) [11]: Active |
| O=C1CCCN1c1ccc(S(=O)(=O)Oc2cccc(I)c2)cc1 | 22 | 59 | 40 | 88 | 6.5 | 4.3 | 7.8 | 81.4 | – |
| COc1cc(OS(=O)(=O)c2ccc(N3CCCC3=O)cc2)cc(OC)c1OC | 17 | 16 | 11 | 13 | 6.1 | 3.8 | 8.3 | 81.8 | Activity (Tubulin (Homo sapiens) [3]): Active; Activity (Tubulin (Homo sapiens) [9]): Active; Inhibition of EBI binding (active/inactive) [11]: Active |
| O=C1CCCN1c1ccc(S(=O)(=O)Oc2cccc(F)c2)cc1 | 370 | 310 | 810 | 300 | – | – | – | – | – |

The remaining compounds from weak to strong by IC50 (MCF7), led by results:

| IC50 (MCF7) [nM] | IC50 (HT-29) [nM] | IC50 (HT-1080) [nM] | Structure (SMILES) | IC50 (M21 [1]) [nM] | Activity (M21 [2]) [%] | Activity (M21 [5]) [%] | Activity (M21 [6]) [%] | Activity (M21 [7]) [%] | also measured |
| --- | --- | --- | --- | --- | --- | --- | --- | --- | --- |
| 16000 | 12000 | 21000 | CC(C)c1ccccc1NS(=O)(=O)c1ccc(N2CCCC2=O)cc1 | 9900 | – | – | – | – | – |
| 7000 | 5400 | 8800 | O=C1CCCN1c1ccc(S(=O)(=O)Nc2ccc(-c3ccccc3)cc2)cc1 | 4700 | – | – | – | – | – |
| 4600 | 4800 | 8500 | COc1ccc(OS(=O)(=O)c2ccc(N3CCCC3=O)cc2)cc1 | 7500 | – | – | – | – | – |
| 1100 | 860 | 1300 | COc1cccc(NS(=O)(=O)c2ccc(N3CCCC3=O)cc2)c1 | 940 | – | – | – | – | – |
| 960 | 730 | 1200 | O=C1CCCN1c1ccc(S(=O)(=O)Nc2ccccc2-c2ccccc2)cc1 | 430 | 12.1 | 3 | 59.8 | 25.1 | – |
| 830 | 590 | 1300 | O=C1CCCN1c1ccc(S(=O)(=O)Nc2cccc(Br)c2)cc1 | 950 | – | – | – | – | – |
| 560 | 680 | 680 | O=C1CCCN1c1ccc(S(=O)(=O)Nc2cccc(Cl)c2)cc1 | 770 | 7.9 | 10.6 | 13.7 | 67.8 | – |
| 500 | 780 | 840 | CC(C)c1ccccc1OS(=O)(=O)c1ccc(N2CCCC2=O)cc1 | 910 | – | – | – | – | – |
| 140 | 120 | 180 | O=C1CCCN1c1ccc(S(=O)(=O)Oc2cccc(Cl)c2)cc1 | 110 | – | – | – | – | – |
| 100 | 120 | 190 | COc1cccc(OS(=O)(=O)c2ccc(N3CCCC3=O)cc2)c1 | 120 | – | – | – | – | – |
| 60 | 60 | 80 | O=C1CCCN1c1ccc(S(=O)(=O)Oc2cccc(Br)c2)cc1 | 40 | 9.6 | 13.3 | 24 | 53.1 | – |
